What was measured:
Type in all cases: physicochemical
[1] = Persistence of colorlessness on acidification to pH 1 after decolorization in aqueous 1 N sodium hydroxide; conditions: methanol solution decolorized with aqueous 1 N NaOH, then aqueous HCl to pH 1
From the text: As discussed above and also in the aforementioned application, the subject compounds have the ability to decolorize completely and irreversibly in base by undergoing an irreversible cleavage reaction within a predetermined time at a predetermined pH to give a new colorless compound which remains colorless at the pH's normally encountered during processing subsequent to "bleaching" so that the new compound may be retained in a photographic film unit, e.g., a photosensitive element without the possibility of color reappearing in time. In this regard, samples of the compounds prepared in Examples 24 and 26 above were dissolved in a small amount of methanol, and aqueous 1 N sodium hydroxide was added to each solution to decolorize the compound.

[2] = Transmission densities (R, G, B) of image-receiving components containing the dye before and after bleaching with aqueous 1 N KOH; conditions: for Transmission Density After Bleaching, B / Transmission Density Before Bleaching, B: blue; for Transmission Density After Bleaching, G / Transmission Density Before Bleaching, G: green; for Transmission Density After Bleaching, R / Transmission Density Before Bleaching, R: red
From the text: Using appropriate solvents, samples of the dye compounds prepared in Examples 12, 13, 24 and 26 were incorporated into the image-receiving layer 3 of four image-receiving components comprising the structure set forth below by mixing the solution of each compound with a solution of the graft copolymer and coating this mixture on top of the timing layer to complete each of the image-receiving components.
A transparent 4 mil polyethylene terephthalate film base coated with, in succession:
1. as a polymeric acid layer, a mixture of about 9 parts of a partial butyl ester of polyethylene/maleic anhydride copolymer and 1 part of polyvinyl butyral coated at a coverage of about 2,500 mgs./ft.^2 ;
2. a timing layer containing a 14:1 ratio of a 60-30-4-6 tetrapolymer of butylacrylate, diacetone acrylamide, styrene and methacrylic acid and polyvinyl alcohol at a coverage of 500 mgs./ft.^2 ;
3. a graft copolymer of 4-vinylpyridine and vinylbenzyltrimethylammoniumchloride grafted on hydroxyethyl cellulose in a weight ratio of 2.2/1/2.2, respectively, coated at a coverage of 300 mgs./ft.^2 to provide an imagereceiving layer and containing the selected dye compound at a coverage of 22 mgs./ft.^2.
Each of the image-receiving components containing the respective dye compounds were placed on a piece of gelatin coated Mylar, and the transmission densities for red (R), green (G) and blue (B) were recorded on a transmission densitometer. Then several drops of aqueous 1 N KOH were added to each gelatin sheet, and the image-receiving components were lightly pressed against the gelatin sheets to "bleach" the dye compounds. […]

[3] = Bleaching rate (T1/2) in pH=12 aqueous buffer, visible spectrometer; conditions: selected wavelength for optical density recording, pH=12 buffer
Procedure: Also, the "bleaching" rates for the compounds of Examples 21, 23 and 24 were determined at pH=12 in terms of T1/2. By T1/2 is meant the time measured for one-half of the colored compound to decolorize. In making these determinations, a cell containing about 3 ml of pH=12 buffer (aqueous) was placed in a visible spectrometer. A sample of each compound was dissolved in methanol, and a small amount (less than 0.1 cc) of each solution was injected into the buffer. The optical densities were then recorded at a selected wavelenth value to determine T1/2.

[4] = Decolorization of methanol solution added to aqueous 1 N KOH
[5] = 15 to 60 seconds after aqueous 1 N KOH
[6] = dye 22 mgs./ft.^2 in image-receiving layer
[7] = dye 22 mgs./ft.^2 in image-receiving layer, densitometer set at 0.00 with two gelatin coated mylar
[8] = coating stored for over 3 months
[9] = coating stored for over 3 months, bleaching time about 3 minutes, aqueous 1 N KOH

SMILES	Transmission Density After Bleaching, B [2, 5]	Transmission Density Before Bleaching, B [2, 6]	Transmission Density After Bleaching, G [2, 5]	Transmission Density Before Bleaching, G [2, 6]	Transmission Density After Bleaching, R [2, 5]	Transmission Density Before Bleaching, R [2, 7]	Wavelength (λmax-nm) [3]	further results
CN(C(=O)OCCS(C)(=O)=O)S(=O)(=O)c1ccccc1C(=C1C=C(C(O)(C(F)(F)F)C(F)(F)F)C(=O)c2ccccc21)c1cc2c3c(c1)CCCN3CCC2 [Example 26]								time to decolorize (in words) [4]: substantially instantaneously; color after decolorization and acidification to pH 1 [1]: remained colorless even at pH 1; Transmission Density Before Bleaching, B [2, 8]: .05; Transmission Density After Bleaching, B [2, 9]: .02; Transmission Density Before Bleaching, G [2, 8]: .06; Transmission Density After Bleaching, G [2, 9]: .00; Transmission Density Before Bleaching, R [2, 8]: .19; Transmission Density After Bleaching, R [2, 9]: .02
CC(=O)N(C)S(=O)(=O)c1ccccc1C(=C1C=C(C(O)(C(F)(F)F)C(F)(F)F)C(=O)c2ccccc21)c1cc2c3c(c1)CCCN3CCC2 [Example 9]								time to decolorize [4]: approximately 5 seconds
COC1=CC(=C(c2cc(OC)c(O)c(OC)c2)c2ccccc2S(=O)(=O)N(C)C(=O)OCCS(C)(=O)=O)C=C(OC)C1=O [Example 21]							640 nm	
COC1=CC(=C(c2ccc(N3CCOCC3)cc2)c2ccccc2S(=O)(=O)N(C)C(=O)OCCS(C)(=O)=O)C=C(OC)C1=O [Example 12]	.00	.45	.01	.31	.02	.00		
COC1=CC(=C(c2cc3c4c(c2)CCCN4CCC3)c2ccccc2S(=O)(=O)N(C)C(=O)OCCS(C)(=O)=O)C=C(OC)C1=O [Example 13]	.00	.09	.01	.32	.01	.21		

Second part, led by results:

Transmission Density After Bleaching, B [2, 5]	Transmission Density Before Bleaching, B [2, 6]	Transmission Density After Bleaching, G [2, 5]	Transmission Density Before Bleaching, G [2, 6]	Transmission Density After Bleaching, R [2, 5]	Transmission Density Before Bleaching, R [2, 7]	Wavelength (λmax-nm) [3]	SMILES	further results
.00	.40	.00	.00	.01	.00	590 nm	CC1=CC(=C(c2cc(C)c(O)c(C)c2)c2ccccc2S(=O)(=O)N(C)C(=O)OCCS(C)(=O)=O)C=C(C)C1=O [Example 24]	color after decolorization and acidification to pH 1 [1]: remained colorless even at pH 1
						640 nm	COC1=CC(=C(c2cc(OC)c(O)c(OC)c2)c2ccccc2S(=O)(=O)N(C)C(C)=O)C=C(OC)C1=O [Example 23]	

Source: patent US4283538A, “Novel triarylmethane compounds” (Polaroid Corporation, priority 1979, dated 1981)
